According to patent publication US7307101B2, “Use of 20-HETE synthesizing enzyme inhibitors as therapy for cerebral vascular disease” (MCW Research Foundation, Inc., priority 2000, dated 2007):

Key:
Format in all cases: in vivo, rat
rats with SAH [1] = assay: Effect on rCBF when given after SAH has been established; settings: 1 mg/kg i.v. 30 min after induction of SAH
Experimental: (§1) Animals. Experiments were performed on male Sprague-Dawley rats (9-12 weeks old), purchased from Harlan Sprague-Dawley, Inc. (Indianapolis, Ind.). The rats were housed in an Animal Care Facility at the Medical College of Wisconsin, which is approved by the American Association for the Accreditation of Laboratory Animal Care. All protocols involving animals received approval by the Animal Care Committee of the Medical College of Wisconsin.
Surgical preparation. Rats were anesthetized with ketamine (Ketaject® 20 mg/kg i.m.) and thiobutabarbital sodium (Inactin® 50 mg/kg i.p.). […] Endtidal partial pressure of carbon dioxide (pCO2) was controlled at 38 mmHg by adjusting the minute ventilation according to the reading of an CO2 analyzer (Capstar-100 IITC, Inc., Woodland Hills, Calif.). Blood samples were collected at the beginning and end of the experiment and analyzed using a blood gas analyzer (ABL 300, Radiometer, Copenhagen, Denmark) to validate the endtidal pCO2 readings. […]
(§2) Cerebral blood flow (CBF) was continuously measured using laser Doppler flowmetry through a thinned cranial window. […] A PF 103 laser Doppler flow (LDF) probe was positioned over the cranial window and CBF was monitored using a PF-3 laser Doppler flowmeter (Perimed, Stockholm, Sweden).
0.3 ml of blood was injected into the Cistema Magna of rats to induce SAH. […] The CBF data are expressed as percentage change from control.

rats with SAH [2] = assay: Effect on rCBF after SAH, drug given before SAH; settings: rats pretreated before SAH, 17-ODYA 1.5 nmol intrathecally
Experimental: as §1
(§3) Surgical preparation. Rats were anesthetized with ketamine (Ketaject® 20 mg/kg i.m.) and thiobutabarbital sodium (Inactin® 50 mg/kg i.p.). A cannula was placed in the trachea and the rats were artificially ventilated using a small animal ventilator (SAR-830, CWE, Inc., Ardmore, Pa.) with a mixture of 30% O2 in N2. The femoral vein was cannulated for the infusion of drug and the rats received an i.v. infusion of 0.9% NaCl solution at a rate of […] to replace fluid losses. The femoral artery was cannulated for measurement of mean arterial pressure (MAP) and arterial blood gases. Endtidal partial pressure of carbon dioxide (pCO2) was controlled at 38 mmHg by adjusting the minute ventilation according to the reading of an CO2 analyzer (Capstar-100 IITC, Inc., Woodland Hills, Calif.). Blood samples were collected at the beginning and end of the experiment and analyzed using a blood gas analyzer (ABL 300, Radiometer, Copenhagen, Denmark) to validate the endtidal pCO2 readings. Anesthesia was maintained by administering additional amounts of thiobutabarbital (8 mg/kg i.v.) as needed. Rectal body temperature was maintained at 37±1° C.
Induction of SAH and measurement of cerebral blood flow. SAH was induced by injection of 0.3 ml autologous arterial blood into the Cisterna Magna using a modification of a posterior cranio-cervical approach of a model of SAH. Delgado T J et al., Stroke 16: 595-602 (1985); Solomon R A et al., Stroke 16: 58-64 (1985). The head of the rat was placed in a stereotactic head holder and the atlanto-occipital membrane was exposed by bluntly separating the overlying neck muscles in the midline. The occipital bone and the atlas were visualized. A 30 gauge needle attached to PE-10 was inserted using a stereomicroscope into the Cistema Magna by penetrating the atlanto-occipital membrane. Then, 0.3 ml of freshly drawn unheparinized arterial blood was injected into the Cistema Magna at a rate of 35 μl/min using a syringe pump. This created a massive SAH that was confirmed in all rats at autopsy. Blood was found overlying the cerebello-medullary junction posteriorly and around the basal artery and the vessels of the Circle of Willis.
as §2
Other animals received 17-ODYA (1.5 nmol) or vehicle in a volume of 50 μl that was injected directly into the Cistema Magna using a micromanipulator and a 30 gauge needle. The CBF recorded over the last 5 minutes of the control period immediately before initiation of SAH served as the control value. […] CBF was recorded for 2 min intervals at 10, 20, 30, 60, 90 and 120 minutes after completion of the injection of the blood. The CBF data are expressed as percentage change from control.

[3] = Physiological parameters (MAP, endtidal pCO2) during the SAH experiment; settings: rats, any time
Experimental: as §3

rats with MCA occlusion = assay: Infarct volume after transient MCA occlusion; settings: 24 h
Experimental: Adult male Wistar rats (200-250 g) were anesthetized with 2% halothane in O2 gas. The right external carotid artery (ECA) was carefully dissected. A silicon-coated suture (18 mm-long) was inserted from the lumen of the ECA to the right internal carotid artery (ICA) to occlude the origin of the right middle cerebral artery (MCA). Body temperature was maintained at 37° C. with a heating pad. […] One hour after MCA occlusion, the thread was removed to allow reperfusion of the ischemic area.
To measure infarct volume, rats were killed after 24 hours of reperfusion following transient occlusion of the MCA. Brains were flushed transcardially with physiological saline, removed from the skull, and cut into 2-mm coronal sections. The slices were immersed in 2% triphenyltetrazolium chloride (TTC) solution at 37° C. for 30 minutes.
All values were presented as mean±SEM. For statistical analysis, Dunnett's multiple-range test was used.

Structure (SMILES): CCCCc1ccc(N=CNO)c(C)c1 [HET0016, N-hydroxy-N′-(4-butyl-2-methylphenyl)-formamidine]
- time after treatment at which cerebral blood flow was back to the control value (rats with SAH [1]): 70 min
- reduction of the initial fall in rCBF at 10 min (rats with SAH [2]; HET0016 10 mg/kg i.v. 30 min prior): about 40%
- time after induction of SAH within which rCBF recovered fully to values not different from control (rats with SAH [2]; HET0016 10 mg/kg i.v.): ≤ 60 min
- MAP (blood pressure) versus vehicle [3]: no difference
- endtidal pCO2 versus vehicle [3]: no significant differences
- infarct volume (rats with MCA occlusion; 0.1 mg/kg i.v. just after reperfusion, n=10): 10.7±2.6%
- infarct volume (rats with MCA occlusion; 1 mg/kg i.v. just after reperfusion, n=17): 9.7±2.1%
